This is an account of results in ChEMBL document CHEMBL3507680, “University of Dundee, Gates Library screen for HepG2 cell viability”.

The nature of this data set: Human HepG2 cell viability assay in 384 well format. It counts as toxicity, cell-based. To be noted: HepG2 cells, read-out: Inhibition. Also noted: dose 125 nL, time 70.5 hour; concentration not given beside the values.

SMILES strings stand for the structures.

With `Cc1nnsc1CNC(=O)Nc1cccc(N2CCN(C)C2=O)c1`, the cytotoxicity at 70.5 h is 5.12%.
Take `Cc1ncc(C(=O)N2CCCC(C(=O)c3nccn3C)C2)c(O)n1` (stereo not given): the cytotoxicity at 70.5 h is 9.55%.
Regarding `Cc1nc(C)c(CC(=O)N2C[C@@H](C(=O)O)[C@H](c3ccncc3)C2)s1`, the cytotoxicity at 70.5 h is -0.442%.
Turning to `c1cc2c(cc1-n1nc(C3CC3)nc1-c1csnn1)OCCO2`, the cytotoxicity at 70.5 h turned out to be 2.73%.
Take `CN1CC2(CCN(Cc3cccc(C#N)c3)CC2)CC1=O`: the cytotoxicity at 70.5 h was determined as 20.6%.
As for `CCCn1cnnc1CN(C)C(=O)C1CCCN(C2CCN(C)CC2)C1` (stereo not given), the cytotoxicity at 70.5 h is -9.33%.
For the molecule `COCC[C@]1(O)CCN(C2CCN(C(=O)C3CCC3)CC2)C[C@H]1C`, the cytotoxicity at 70.5 h is -9.1%.
Take `CN(Cc1cccc2ncccc12)C(=O)CCC(F)(F)F`: the cytotoxicity at 70.5 h was determined as 27.3%.
With `CC(C)N1CC2(CCCN(c3ccccn3)C2)CCC1=O` (stereo not given), the cytotoxicity at 70.5 h was -6.62%.
In the case of `CCCc1nnc(N2CCC3(CC2)CN(C)C(=O)O3)o1`, the cytotoxicity at 70.5 h amounted to 2.82%.
As for `COc1cccc(OCC2CCCN(Cc3ccncc3)C2)c1` (stereo not given), the cytotoxicity at 70.5 h was -10.6%.
Consider `CCN1CCC(CC(=O)N[C@H](C(=O)O)c2cccc(F)c2F)CC1`, for which the cytotoxicity at 70.5 h is -2.11%.
For `Cn1ccnc1C1CCCN(C(=O)c2cc(F)cc(F)c2)C1` (stereo not given), the cytotoxicity at 70.5 h is -6.29%.
Then `CC(C)=CCN1C(=O)[C@H]2CC[C@@H]1CN(C(=O)CCc1n[nH]c(C)c1C)C2`, with 11.2%; and `CC(c1cccc(-c2cn(Cc3ccoc3)nn2)c1)N(C)C` (stereo not given), with -2.66%.
For `Cc1ccc(O)c(CN(Cc2ccccc2)Cc2nccs2)n1`, the cytotoxicity at 70.5 h was -4.83%.
Regarding `Cc1ccc(C(=O)N(C)CCCc2cnn(C)c2)cc1N1CCNC1=O`, the cytotoxicity at 70.5 h is 46.5%.
Turning to `CCOCCn1nc(C)cc1C(=O)N1CC[C@](C)(O)C(C)(C)C1`, the cytotoxicity at 70.5 h amounted to 2.52%.
As to `Cc1n[nH]c(C)c1CCN(C)C(=O)C(c1cccnc1)N1CCOCC1` (stereo not given), the cytotoxicity at 70.5 h was -4.73%.
For `COc1cccc2c1OCC(C(=O)N1CCN(S(=O)(=O)N(C)C)CC1)C2` (stereo not given), the cytotoxicity at 70.5 h was -2.76%.
The same measure for `CSCCCNC(=O)c1coc(Cn2cnc3ccccc32)n1`: -6.75%; for `CN(Cc1cc[nH]n1)C(=O)c1ccc2c(c1)nc(N1CC[C@H](O)C1)n2C`: -1.12%.
`CSc1nccc(-c2cccc(-c3ccn(CC4COCCO4)n3)c2)n1` (stereo not given): the cytotoxicity at 70.5 h is -13.8%.
For the molecule `Cc1ccc(Oc2ncccc2CNC2Cc3ccccc3C2)cn1`, the cytotoxicity at 70.5 h was -8.21%.
For the molecule `CCC[C@@H]1CN(C(=O)c2cc3ccccc3cc2O)C[C@H]1N(C)C`, the cytotoxicity at 70.5 h was determined as 28.4%.
In the case of `Cc1cc(NC(C)Cn2cccn2)n2nccc2n1` (stereo not given), the cytotoxicity at 70.5 h was -12.5%.
On to `O=C(c1ncc(F)cc1F)N1CCC(c2ncc[nH]2)CC1`, for which the cytotoxicity at 70.5 h is -14%.
Then `CC(=O)c1cc(CN2C[C@@H](C(=O)O)[C@H](c3cccnc3)C2)cs1`, with -7.32%; and `CN1CCN(Cc2ccc(-c3ccc(-c4ccn[nH]4)cc3)nc2)CC1`, with 0.0371%.
For `Cc1ccc(CN2CCN(CC(=O)N(C)C)[C@@H]3CS(=O)(=O)C[C@@H]32)cc1C`, the cytotoxicity at 70.5 h was -3.23%.
Turning to `CN(C(=O)c1cccc(NCC(=O)O)c1)C(C1CC1)C1CC1`, the cytotoxicity at 70.5 h is -8.7%.
The same measure for `Cc1ccc(CC(=O)N2C[C@@H](CN(C)C)[C@@H](CO)C2)cc1C`: -2.62%; for `CC(C)c1nccc(CN2CCC(c3nc4ccccc4n3C)CC2)n1`: -20.5%; for `CCC1CN(C(=O)c2ccc(=O)[nH]n2)CCC(=O)N1Cc1ccccc1` (stereo not given): 1.68%.
With `CNC(=O)CNC(=O)CC1C(=O)NCCN1Cc1ccccc1C` (stereo not given), the cytotoxicity at 70.5 h is -5.79%.
With `COc1cccc(-c2cccc(CN3C[C@@H]4CC[C@H](C3)N(C)C4=O)c2)c1`, the cytotoxicity at 70.5 h was 14.8%.
Take `Cc1nn(C)c(C)c1CCC(=O)NCc1csc(N2CCCC2)n1`: the cytotoxicity at 70.5 h was 2.01%.
Then `Cc1[nH]c(-c2ccccc2)nc1C(=O)N1CCC2(CCCO2)CC1`, with -2.81%; and `CN(CCc1ccccc1)c1cnn(CC(=O)N2CCOCC2)c(=O)c1`, with -7.73%.
Take `CCOCC(O)CN1CCN(C(=O)c2ccc(OC)cc2)CC1` (stereo not given): the cytotoxicity at 70.5 h was -9.9%.
The same measure for `CC(C)N(C)S(=O)(=O)N(C)Cc1ccc2c(c1)OCCO2`: 4.58%; for `CC(NC(=O)NCc1ccccn1)c1ccc2c(c1)CCC(=O)N2` (stereo not given): -6.54%.
The same measure for `CC(Cn1cccn1)NC(=O)Nc1nncs1` (stereo not given): -2.31%; for `Cc1nc(CNC(=O)NCc2cccnc2N(C)C)cs1`: -5.06%; for `COC(=O)C(NC(=O)C1CCCC1)c1cc(F)ccc1F` (stereo not given): 0.552%.
The same measure for `CC(O)CN1CCN(C(=O)c2cc3ccccc3n2C)CC1` (stereo not given): 14.8%.
In the case of `Cc1nc(C2CCCN2C(=O)CCCn2cccn2)no1` (stereo not given), the cytotoxicity at 70.5 h was 3.27%.
The same measure for `Cn1cnnc1C1CCCN(C(=O)NCc2ccccn2)C1` (stereo not given): 15.7%; for `CN(Cc1ccco1)C(=O)C1CSCN1C(=O)c1cccs1` (stereo not given): 12.5%; for `CCc1c(C(=O)N2CCCC(N(C)C)C2)cnn1C(C)(C)C` (stereo not given): -4.41%.
For the molecule `Cc1nn(C)c(C)c1C1CCCN1C(=O)CCNS(C)(=O)=O` (stereo not given), the cytotoxicity at 70.5 h was -5.69%.
`Cc1nc2n(n1)CC(NCc1cc(Cl)c3c(c1)OCCO3)CC2` (stereo not given): the cytotoxicity at 70.5 h is -4.92%.
Regarding `Cc1nn(C)c(Cl)c1C1CCCN1C(=O)CCNc1ncccn1` (stereo not given), the cytotoxicity at 70.5 h is -2.34%.
With `COc1c(C2CCCN2C(=O)CCNc2ncccn2)c(C)nn1C` (stereo not given), the cytotoxicity at 70.5 h is -10.7%.
As for `COc1cc(CNC2CCc3nc(C)nn3C2)cc2c1OCO2` (stereo not given), the cytotoxicity at 70.5 h was -5.53%.
Turning to `Cc1nnc(NC(=O)NCc2ccc(OC3CCCC3)nc2)s1`, the cytotoxicity at 70.5 h was determined as 1.95%.
For `Cc1[nH]ncc1CCCNC(=O)N1CCCC(c2nncn2C)C1` (stereo not given), the cytotoxicity at 70.5 h is -1.78%.
Consider `Cn1cc(CCNC(=O)N2CCCC(c3nncn3C)C2)cn1` (stereo not given), for which the cytotoxicity at 70.5 h is -4.93%.
For the molecule `CCOCCCn1c(NC(=O)c2cnc(C)cn2)nc2ccccc21`, the cytotoxicity at 70.5 h was -5.61%.
The same measure for `CCc1c(C(=O)N2CCC(CC(N)=O)CC2)cnn1C(C)(C)C`: -3.41%; for `CCOCCCn1c(NC(=O)c2cc(C)no2)nc2ccccc21`: 2.27%; for `Cc1ccccc1CN(C)C(=O)CN1CCCC(Cn2cncn2)C1` (stereo not given): -6.64%.
`CC(O)CN1CCN(Cc2coc(-c3ccc(Cl)cc3)n2)CC1` (stereo not given): the cytotoxicity at 70.5 h was -5.87%.
On to `Cc1cnc(CN(C)C2CCCN(Cc3noc(C4CC4)n3)C2)cn1` (stereo not given), for which the cytotoxicity at 70.5 h turned out to be 16.1%.
Take `Cc1cc(CN(C)C2CCCN(Cc3noc(C)n3)C2)no1` (stereo not given): the cytotoxicity at 70.5 h is 7.31%.
Take `Cc1nnc(CN(C)C2CCCN(Cc3noc(C4CC4)n3)C2)o1` (stereo not given): the cytotoxicity at 70.5 h was -8.76%.
With `CN(Cc1ccccn1)C1CCCN(Cc2noc(C3CC3)n2)C1` (stereo not given), the cytotoxicity at 70.5 h was -8.62%.
Turning to `CCc1ncncc1C(=O)N1CCCN(Cc2ccccc2C)CC1`, the cytotoxicity at 70.5 h is -8.2%.
For the molecule `Cc1cc(NC(=O)CN2CCCC2Cn2nc(C)nc2C)n(C)n1` (stereo not given), the cytotoxicity at 70.5 h is -14.8%.
For the molecule `CCCc1ccc(OCCNCc2ccco2)c(OC)c1`, the cytotoxicity at 70.5 h is -1.62%.
